In ChEMBL document CHEMBL1201862, “PubChem BioAssay data set” (2004):
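Five compound concentrations were applied to cells in 96-well plates for 48 hours; endpoints were derived by simple linear interpolation of the resulting dose-response curve. Abbreviation: GI50, concentration required for 50% inhibition of growth.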 Active and inactive are the calls of the source. Rule as the data show it: active = GI50 up to about 1.1 µM and inactive = higher.

How the values were obtained:
Assay in all cases: inhibition of tumour cell growth, NCI panel, 48 h
MDA-MB-231 = tested on: MDA-MB-231
OVCAR-5 = tested on: OVCAR-5
SW-620 = tested on: SW-620
UACC-62 = tested on: UACC-62
MDA-MB-435 = tested on: MDA-MB-435
HOP-62 = tested on: HOP-62
786-0 = tested on: 786-0
CAKI-1 = tested on: CAKI-1
M14 = tested on: M14
NCI-H460 = tested on: NCI-H460
EKVX = tested on: EKVX
PC-3 = tested on: PC-3
DU-145 = tested on: DU-145
HCT-116 = tested on: HCT-116
SF-268 = tested on: SF-268
SK-OV-3 = tested on: SK-OV-3
NCI-H23 = tested on: NCI-H23
SN12C = tested on: SN12C
Malme-3M = tested on: Malme-3M
SF-295 = tested on: SF-295
OVCAR-8 = tested on: OVCAR-8
UACC-257 = tested on: UACC-257
NCI/ADR-RES = tested on: NCI/ADR-RES
SNB-19 = tested on: SNB-19
KM12 = tested on: KM12
HCC 2998 = tested on: HCC 2998
OVCAR-4 = tested on: OVCAR-4
SK-MEL-28 = tested on: SK-MEL-28
MDA-N = tested on: MDA-N
SK-MEL-5 = tested on: SK-MEL-5
TK-10 = tested on: TK-10
CCRF-CEM = tested on: CCRF-CEM
SR = tested on: SR
SNB-75 = tested on: SNB-75
SF-539 = tested on: SF-539
OVCAR-3 = tested on: OVCAR-3
MOLT-4 = tested on: MOLT-4
NCI-H226 = tested on: NCI-H226
COLO 205 = tested on: COLO 205
HL-60 = tested on: HL-60
A549 = tested on: A549
T47D = tested on: T47D
IGROV-1 = tested on: IGROV-1
LOX IMVI = tested on: LOX IMVI
UO-31 = tested on: UO-31
MCF7 = tested on: MCF7
RXF 393 = tested on: RXF 393
Hs-578T = tested on: Hs-578T
HT-29 = tested on: HT-29
ACHN = tested on: ACHN
K562 = tested on: K562
A498 = tested on: A498
HOP-92 = tested on: HOP-92
RPMI-8226 = tested on: RPMI-8226
NCI-H522 = tested on: NCI-H522
SK-MEL-2 = tested on: SK-MEL-2
HCT-15 = tested on: HCT-15
U-251 = tested on: U-251

Measured: GI50

C/C(=C/CNc1ncnc2c1ncn2CCC#N)CO
inactive: MDA-MB-231 > 100 µM | OVCAR-5 > 100 µM | SW-620 > 100 µM | UACC-62 > 100 µM | MDA-MB-435 > 100 µM | HOP-62 > 100 µM | 786-0 > 100 µM | CAKI-1 > 100 µM | M14 > 100 µM | NCI-H460 > 100 µM | EKVX > 100 µM | PC-3 > 100 µM | DU-145 > 100 µM | HCT-116 > 100 µM | SF-268 > 100 µM | SK-OV-3 > 100 µM | NCI-H23 > 100 µM | SN12C > 100 µM | Malme-3M > 100 µM | SF-295 > 100 µM | OVCAR-8 > 100 µM | UACC-257 > 100 µM | NCI/ADR-RES > 100 µM | SNB-19 > 100 µM | KM12 > 100 µM | HCC 2998 > 100 µM | OVCAR-4 > 100 µM | SK-MEL-28 > 100 µM | MDA-N > 100 µM | SK-MEL-5 > 100 µM | TK-10 > 100 µM | CCRF-CEM > 100 µM | SR > 100 µM | SNB-75 > 100 µM | SF-539 > 100 µM | OVCAR-3 > 100 µM | MOLT-4 > 100 µM | NCI-H226 > 100 µM | COLO 205 > 100 µM | HL-60 > 100 µM | A549 > 100 µM | T47D > 100 µM | IGROV-1 > 100 µM | LOX IMVI > 100 µM | UO-31 > 100 µM | MCF7 > 100 µM | RXF 393 > 100 µM | Hs-578T > 100 µM | HT-29 > 100 µM | ACHN > 100 µM | K562 > 100 µM | A498 > 100 µM | HOP-92 > 100 µM | RPMI-8226 > 100 µM | NCI-H522 > 100 µM

COC(=O)c1c2c(cc3c1CC1(Cc4cc5c(cc4C1)CCCC5)C3)CCCC2
inactive: MDA-MB-231 > 100 µM | OVCAR-5 > 100 µM | UACC-62 > 100 µM | SK-MEL-2 > 100 µM | MDA-MB-435 > 100 µM | HOP-62 > 100 µM | 786-0 > 100 µM | M14 > 100 µM | EKVX > 100 µM | PC-3 > 100 µM | HCT-116 15.3 µM | SK-OV-3 > 100 µM | NCI-H23 > 100 µM | SN12C > 100 µM | Malme-3M > 100 µM | SF-295 > 100 µM | OVCAR-8 > 100 µM | UACC-257 > 100 µM | NCI/ADR-RES > 100 µM | KM12 > 100 µM | HCC 2998 > 100 µM | OVCAR-4 > 100 µM | MDA-N > 100 µM | SK-MEL-5 > 100 µM | TK-10 > 100 µM | CCRF-CEM 12 µM | SR 27.5 µM | SF-539 > 100 µM | OVCAR-3 > 100 µM | MOLT-4 > 100 µM | COLO 205 > 100 µM | HL-60 80.4 µM | A549 46.3 µM | T47D > 100 µM | IGROV-1 > 100 µM | LOX IMVI > 100 µM | UO-31 > 100 µM | MCF7 > 100 µM | RXF 393 25.8 µM | Hs-578T > 100 µM | U-251 > 100 µM | HT-29 > 100 µM | ACHN > 100 µM | K562 > 100 µM | A498 > 100 µM | HOP-92 > 100 µM | RPMI-8226 > 100 µM | NCI-H522 > 100 µM
active: SNB-75 0.155 µM
> 100 µM: HCT-15

Cc1cc(-c2cccc3ccccc23)c(C#N)c(=S)n1C1OC(CO)C(O)C(O)C1O (stereo not drawn)
active: SNB-75 0.0379 µM
> 100 µM: HCT-15
inactive: MDA-MB-231 > 100 µM | OVCAR-5 > 100 µM | SW-620 > 100 µM | UACC-62 > 100 µM | SK-MEL-2 > 100 µM | MDA-MB-435 > 100 µM | HOP-62 > 100 µM | 786-0 > 100 µM | CAKI-1 > 100 µM | M14 > 100 µM | NCI-H460 > 100 µM | EKVX > 100 µM | PC-3 > 100 µM | HCT-116 > 100 µM | SK-OV-3 > 100 µM | NCI-H23 > 100 µM | SN12C 82.8 µM | Malme-3M > 100 µM | SF-295 > 100 µM | OVCAR-8 > 100 µM | UACC-257 > 100 µM | NCI/ADR-RES > 100 µM | KM12 > 100 µM | HCC 2998 > 100 µM | OVCAR-4 60.3 µM | MDA-N > 100 µM | SK-MEL-5 67 µM | TK-10 > 100 µM | CCRF-CEM 71.1 µM | SR 98.4 µM | SF-539 > 100 µM | OVCAR-3 > 100 µM | MOLT-4 > 100 µM | NCI-H226 50 µM | COLO 205 > 100 µM | HL-60 > 100 µM | A549 > 100 µM | T47D 52.7 µM | IGROV-1 > 100 µM | LOX IMVI > 100 µM | MCF7 > 100 µM | RXF 393 > 100 µM | Hs-578T 86.5 µM | HT-29 > 100 µM | ACHN > 100 µM | A498 > 100 µM
